According to the supplement of paper PMC10307832:

What was measured:
Assay in all cases: relative viability (nuclei count vs DMSO), 5 days (fraction); higher = more cells survive
[1] = compound: CC1=CC(=NN1)NC2=CC(=NC(=N2)/C=C/C3=CC=CC=C3)N4CCN(CC4)C + NC(=O)Nc1cc(-c2cccc(F)c2)sc1C(=O)N[C@H]1CCCNC1 [AZD7762] (partner 0.2 µM)
Method in brief: (§1)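 Each reported value is a median over duplicate plates. It expresses relative viability: treated-well nuclei count divided by vehicle-well nuclei count. Lung cancer cell lines in 1536-well plates were dosed by pin tool a day after seeding, alone with one drug or with a fixed anchor-drug dose plus five library-drug doses (not always all listed) in √10 steps, and nuclei were counted after 5 days.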

Obatoclax + Decitabine = compound: COC1=CC(c2cc3ccccc3[nH]2)=N/C1=C\c1[nH]c(C)cc1C [Obatoclax] + Nc1ncn([C@H]2C[C@H](O)[C@@H](CO)O2)c(=O)n1 [Decitabine] (partner 2 µM)
Method in brief: as §1

[2] = compound: CC1=CC(=NN1)NC2=CC(=NC(=N2)/C=C/C3=CC=CC=C3)N4CCN(CC4)C + CC(=O)c1c(C)c2cnc(Nc3ccc(N4CCNCC4)cn3)nc2n(C2CCCC2)c1=O [Palbociclib] (partner 0.5 µM)
Method in brief: as §1

[3] = compound: CC1=CC(=NN1)NC2=CC(=NC(=N2)/C=C/C3=CC=CC=C3)N4CCN(CC4)C + Nc1ncn([C@H]2C[C@H](O)[C@@H](CO)O2)c(=O)n1 [Decitabine] (partner 2 µM)
Method in brief: as §1

| Cell Line | relative viability ([1]; first compound 0.08 µM) | relative viability ([1]; first compound 0.253 µM) | relative viability ([1]; first compound 0.8 µM) | relative viability ([1]; first compound 2.53 µM) | relative viability ([1]; first compound 8 µM) | relative viability (Obatoclax + Decitabine; first compound 0.01 µM) | relative viability (Obatoclax + Decitabine; first compound 0.03162 µM) | relative viability (Obatoclax + Decitabine; first compound 0.1 µM) | relative viability (Obatoclax + Decitabine; first compound 0.3162 µM) | relative viability (Obatoclax + Decitabine; first compound 1 µM) | relative viability ([2]; first compound 0.08 µM) | relative viability ([2]; first compound 0.253 µM) | relative viability ([2]; first compound 0.8 µM) | relative viability ([2]; first compound 2.53 µM) | relative viability ([2]; first compound 8 µM) | relative viability ([3]; first compound 0.08 µM) | relative viability ([3]; first compound 0.253 µM) | relative viability ([3]; first compound 0.8 µM) | relative viability ([3]; first compound 2.53 µM) | relative viability ([3]; first compound 8 µM) |
| --- | --- | --- | --- | --- | --- | --- | --- | --- | --- | --- | --- | --- | --- | --- | --- | --- | --- | --- | --- | --- |
| NCI-H1792 | 0.659 | 0.732 | 0.665 | 0.132 | 0.0222 | 0.58 | 0.469 | 0.537 | 0.427 | 0.581 | 0.649 | 0.751 | 0.684 | 0.559 | 0.155 | 0.435 | 0.556 | 0.377 | 0.332 | 0.0377 |
| COR-L 105 | – | – | – | – | – | 0.68 | 0.665 | 0.634 | 0.525 | 0.407 | 0.432 | 0.381 | 0.406 | 0.275 | 0.323 | 0.549 | 0.847 | 0.624 | 0.425 | 0.235 |
| LU99A | 0.298 | 0.376 | 0.252 | 0.14 | 0.0858 | 0.915 | 0.89 | – | 0.847 | 0.976 | 0.413 | 0.461 | 0.393 | 0.299 | 0.146 | 0.86 | 0.892 | 0.73 | 0.409 | 0.214 |
| NCI-H2009 | – | – | – | – | – | 0.371 | 0.384 | 0.358 | 0.305 | 0.213 | 0.191 | 0.18 | 0.216 | 0.129 | 0.102 | 0.357 | 0.377 | 0.444 | 0.282 | 0.151 |
| CAL-12T | 0.626 | 0.655 | 0.647 | 0.319 | 0.152 | – | – | – | – | – | 0.412 | 0.335 | 0.466 | 0.185 | 0.119 | – | – | – | – | – |
| NCI-H1703 | 0.151 | 0.0851 | 0.114 | 0.147 | 0.0896 | – | – | – | – | – | – | – | – | – | – | – | – | – | – | – |
| UMC-11 | – | – | – | – | – | 0.608 | 0.536 | 0.475 | 0.573 | 0.41 | 0.327 | 0.342 | 0.323 | 0.232 | 0.232 | 0.722 | 0.609 | 0.562 | 0.282 | 0.209 |
| COR-L23 | – | – | – | – | – | 0.478 | 0.404 | 0.488 | 0.235 | 0.194 | 0.315 | 0.33 | 0.24 | 0.127 | 0.0777 | 0.511 | 0.451 | 0.392 | 0.125 | 0.113 |
| SK-MES-1 | – | – | – | – | – | 0.366 | 0.374 | 0.468 | 0.233 | 0.202 | 0.357 | 0.289 | 0.309 | 0.257 | 0.155 | 0.402 | 0.379 | 0.331 | 0.187 | 0.11 |
| SK-LU-1 | – | – | – | – | – | 0.682 | 0.567 | 0.454 | 0.478 | 0.363 | 0.453 | 0.368 | 0.457 | 0.248 | 0.155 | 0.594 | 0.661 | 0.618 | 0.396 | 0.183 |
| NCI-H520 | – | – | – | – | – | 0.441 | 0.309 | 0.631 | 0.507 | 0.292 | 0.209 | 0.214 | 0.184 | 0.142 | 0.113 | 0.382 | 0.542 | 0.501 | 0.191 | 0.14 |
